Assay results taken from patent US7259167B2, “Antimalarial and antiproliferative pharmacophore models, novel tryptanthrin compounds having increased solubility, and methods of making and using thereof” (United States of America as Represented by the Secretary of …, priority 2002, dated 2007).

Columns and labels:
[1] = Solubility of DN49 in various solvents; type: physicochemical; conditions: for solubility: organic solvent or mixture
Method: The solubility of DN49 (WR288510) was tested in various solvents to determine the properties encouraging solubility. […] An N—H group on an aromatic compound might be forming a complex with tryptanthrin. […] (200 mM) concentration in a solvent. The temperature is a close approximation to the temperature required to achieve solubility. Color is the color of the solution; DN49 is a yellow compound and colors other than yellow indicate close interaction between solvent and solute. Precipitate is whether or not DN49 precipitated out upon cooling to room temperature.

[2] = Characteristics of DN49 dosing preparation; type: physicochemical; conditions: Hot DMSO and further diluted in PBS (1:10)
Method: (§1) DN49 was a yellow powder and dissolved completely in hot DMSO. The hot DMSO solution was then diluted 1:10 in PBS.

[3] = system: P. berghei P-line; assay: Bioavailability and efficacy of DN49 in infected mice; type: in vivo
Method: On day 0, each mouse in groups 1 to 7 was inoculated intraperitoneally with 0.1 ml, 1.0×10^6 P. berghei P-line infected red blood cell from donor mice diluted in PBS.
as §1
On days 3 to 5, 0.2 ml of the three dosages at 2.5, 1.25, 0.625 mg/kg of DN49 were administered intravenously by a 29G, 0.5-inch needle (Groups 2 to 4). In addition, 0.2 ml of the three dosages at 30, 15, 7.5 mg/kg of DN49 were administered orally by a 20G, 2.5-inch needle (Groups 5 to 7). Drug administrations were performed once daily for 3 days. Group 1 served as vehicle control, and PBS was administered orally.

[4] = Hemin binding activity assay by 1H NMR (pseudocontact shifts); conditions: DMSO-d6
Method: (§2) As provided in Example 5, the hemin binding affinity for a series of tryptanthrin compounds with functional groups at the 8-position with different electron donating/withdrawing characteristics corresponding with the pharmacophore model of the present invention was determined by ^1H NMR. The binding interaction was measured as a function of the induced up-field shift in the chemical shift as a function of increasing hemin concentration. ^1H spectra of selected compounds each analog with an increasing concentration of hemin were collected and analyzed for the effect of the pseudocontact shifts.
It is well known that bio-molecules containing the paramagnetic species Fe^+3 induce via pseudocontact effect (a thru-space paramagnetic interaction, similar to the thru-space diopolar interaction or NOE) up-field chemical shifts of the ^1H, ^13C, ^15N atoms of bound ligands. See Serge Moreau et al. (1985) Biochemica et. Biophysica Acta 107-116; Alam, S. L., et al. (1998) J. Biomol. NMR 11:119-133; and Kalodimos, C. G., et al. (2000) J. Inorg. Biochem. 79:371-380, which are herein incorporated by reference. […] See Crowley, P. B., et al. (2001) J. Am. Chem. Soc. 123:10444-10453, which is herein incorporated by reference. Consequently, the closer a particular proton on the ligand is to the Fe^+3 atom, the greater the induced Δδ.
as §2, with “The” for “As provided in Example 5, the”, “using” for “by”, “of” for “of selected compounds”
To each sample, a 100 or 200 μl aliquot of a known concentration of hemin dissolved in 1.0 ml of DMSO-d6 was added. The concentrations of the tryptanthrin compounds compounds ranged from 3.0 to 8.0 mg per 500 μl of DMSO. A corresponding solution of hemin in DMSO was prepared to maintain a molar ratio of tryptanthrin compounds to hemin in the range of 1:1.0 to 1:1.5.
All ^1H NMR data was collected using a Bruker Avance-600 spectrometer using methods known in the art. See e.g. Wang, J., et al. (2001) J. Am. Chem. Soc. 123:8080-8088, which is herein incorporated by reference. The proton spectra were collected at 300 K, using a spectral width of 9090.9 Hz. All spectra were acquired with 64k data points in F2. All chemical shifts were referenced internally to TMS (0.00 ppm). The spectra were processed using XWINNMR (Bruker BioSpin Corporation, Billerica, Mass.) on a Silicon Graphics O2 workstation (Silicon Graphics, Mountain View, Calif.). Each data set was multiplied by a Gaussain window function with 0.3 Hz line broadening in each dimension before transformation.

In the case of O=C1c2ccccc2-n2c1nc1ncccc1c2=O [DN49], the “Precipitate upon cooling to room temperature” value (shortened to “Precipitate upon cooling”) ([1]; 1,4-dioxane) is reported as “yes”, the solubility ([1]; 1,4-dioxane, 80 °C) is reported as > 25 mg/mL and the solubility ([1]; 3,4-dihydro-2H-pyran) is reported as < 25 mg/mL. The “Precipitate upon cooling” value ([1]; Aniline) was “No”, the solubility ([1]; Aniline, 18 °C) was > 25 mg/mL and the “Precipitate upon cooling” value ([1]; Benzoic acid) was “Yes”. For the same molecule, the solubility ([1]; Benzoic acid, 50 °C) was > 25 mg/mL, the solubility ([1]; Benzyl alcohol, 30 °C, Benzyly alcohol) was > 25 mg/mL and the “Precipitate upon cooling” value ([1]; Benzyly alcohol) was “No”. The solubility ([1]; Diethylamine) was < 25 mg/mL, the solubility ([1]; Dimethylsulfoxide, Dimethylsufoxide) was < 25 mg/mL and the “Precipitate upon cooling” value ([1]; Indole) was “Solidified”. For the same molecule, the solubility ([1]; Indole, 53 °C) was > 25 mg/mL, the “Precipitate upon cooling” value ([1]; Isoquinoline) was “Solidified” and the solubility ([1]; Isoquinoline) was > 25 mg/mL. The “Precipitate upon cooling” value ([1]; N-methylbenzylamine) was “No”, the solubility ([1]; N-methylbenzylamine) was > 25 mg/mL and the solubility ([1]; N-methylpiperidine) was < 25 mg/mL. For the same molecule, the “Precipitate upon cooling” value ([1]; Nitrobenzene) was “Yes”, the solubility ([1]; Nitrobenzene) was > 25 mg/mL and the “Precipitate upon cooling” value ([1]; Phenol) was “solidified”. The solubility ([1]; Phenol) was > 25 mg/mL, the “Precipitate upon cooling” value ([1]; Piperidine) was “No” and the solubility ([1]; Piperidine) was > 25 mg/mL. The “Precipitate upon cooling” value ([1]; Pyridine) was “Yes”, the solubility ([1]; Pyridine) was > 25 mg/mL and the “Precipitate upon cooling” value ([1]; Pyrrole) was “No”. For the same molecule, the solubility ([1]; Pyrrole) was > 25 mg/mL, the “Precipitate upon cooling” value ([1]; Pyrrolidine) was “No” and the solubility ([1]; Pyrrolidine) was > 25 mg/mL. For the same molecule, the solubility ([1]; Tetrahydrofuran) was < 25 mg/mL, the solubility ([1]; Toluene) was < 25 mg/mL and the solubility ([1]; Triethylamine) was < 25 mg/mL. For the same molecule, the solubility [2] was “Partial”, the “extension of life of mice” value ([3]; 2.5 mg/kg intravenously once daily at study days 3 to 5) was 2 days and the “extension of life of mice” value ([3]; 30 mg/kg orally once daily at study days 3 to 5) was 2 days. For the same molecule, the “mean parasitemia on day 6” value ([3]; Group 2, 2.5 mg/kg intravenously once daily days 3 to 5) was 54.75%, the “mean parasitemia on day 6” value ([3]; Group 3, 1.25 mg/kg intravenously once daily days 3 to 5) was 55.75% and the “mean parasitemia on day 6” value ([3]; Group 4, 0.625 mg/kg intravenously once daily days 3 to 5) was 61.18%. The “mean parasitemia on day 6” value ([3]; Group 5, 30 mg/kg orally once daily days 3 to 5) was 56.11%, the “mean parasitemia on day 6” value ([3]; Group 6, 15 mg/kg orally once daily days 3 to 5) was 54.26% and the “mean parasitemia on day 6” value ([3]; Group 7, 7.5 mg/kg orally once daily days 3 to 5) was 64.23%. For the same molecule, the “acute toxicity or other deaths prior to day 6” value ([3]; IV 0.625-2.5 mg/kg, oral 7.5-30 mg/kg) was “no acute toxicity”, the Toxic effects ([3]; at the dosages given (up to 2.5 mg/kg IV, 30 mg/kg oral)) was “not observed” and the “activity at lower dosages” value ([3]; dosages below 2.5 mg/kg intravenously or 30 mg/kg orally) was “no significant activity”. For the same molecule, the “Maximum induced Δδ” value ([4]; hemin induced pseudocontact chemical shift) was 0.558 ppm and the “Concentration dependence Δδ” value ([4]; slope of Δδ v. hemin concentration) was 0.09778 ppm/mole %.
